Data published in US9353090B2, “Heterocyclic carboxylic acids as activators of soluble guanylate cyclase” (Boehringer Ingelheim International GmbH, priority 2014, dated 2016).
In brackets after ≈: the same amount, converted by molar mass.

Legend:
[1] = target: human soluble guanylate cyclase alpha 1 and beta 1 subunits (sGC) (Homo sapiens (Human), UniProt Q02108+Q02153); test: sGC cellular activator assay (cGMP, HTRF), in the presence and absence of 50% human serum; assay type: cell-based; conditions: CHO cells stably expressing human sGC alpha 1/beta 1, preincubated with 40 microM ODQ; cGMP by HTRF; Table 2 does not state whether with or without 50% human serum
human soluble guanylate cyclase alpha 1 and beta 1 subunits (sGC), sequence (Q02108 whole entry partner): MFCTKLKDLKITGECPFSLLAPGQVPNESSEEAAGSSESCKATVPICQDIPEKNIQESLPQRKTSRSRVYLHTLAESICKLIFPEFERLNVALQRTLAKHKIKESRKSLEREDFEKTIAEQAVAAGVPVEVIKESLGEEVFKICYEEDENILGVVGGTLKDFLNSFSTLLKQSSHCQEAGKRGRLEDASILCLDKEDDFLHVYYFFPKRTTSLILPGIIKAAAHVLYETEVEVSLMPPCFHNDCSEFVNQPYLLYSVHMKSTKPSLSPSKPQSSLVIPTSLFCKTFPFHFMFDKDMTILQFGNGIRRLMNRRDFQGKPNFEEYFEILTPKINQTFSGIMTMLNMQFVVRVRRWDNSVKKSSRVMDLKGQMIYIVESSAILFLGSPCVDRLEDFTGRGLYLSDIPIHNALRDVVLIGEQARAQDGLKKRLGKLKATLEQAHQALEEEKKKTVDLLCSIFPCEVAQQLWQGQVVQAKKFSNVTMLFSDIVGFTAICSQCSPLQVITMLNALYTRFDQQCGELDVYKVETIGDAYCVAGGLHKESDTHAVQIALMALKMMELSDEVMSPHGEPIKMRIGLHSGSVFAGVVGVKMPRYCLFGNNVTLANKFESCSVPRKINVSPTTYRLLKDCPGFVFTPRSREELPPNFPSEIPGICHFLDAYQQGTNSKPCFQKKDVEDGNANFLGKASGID
human soluble guanylate cyclase alpha 1 and beta 1 subunits (sGC), sequence (Q02153 whole entry): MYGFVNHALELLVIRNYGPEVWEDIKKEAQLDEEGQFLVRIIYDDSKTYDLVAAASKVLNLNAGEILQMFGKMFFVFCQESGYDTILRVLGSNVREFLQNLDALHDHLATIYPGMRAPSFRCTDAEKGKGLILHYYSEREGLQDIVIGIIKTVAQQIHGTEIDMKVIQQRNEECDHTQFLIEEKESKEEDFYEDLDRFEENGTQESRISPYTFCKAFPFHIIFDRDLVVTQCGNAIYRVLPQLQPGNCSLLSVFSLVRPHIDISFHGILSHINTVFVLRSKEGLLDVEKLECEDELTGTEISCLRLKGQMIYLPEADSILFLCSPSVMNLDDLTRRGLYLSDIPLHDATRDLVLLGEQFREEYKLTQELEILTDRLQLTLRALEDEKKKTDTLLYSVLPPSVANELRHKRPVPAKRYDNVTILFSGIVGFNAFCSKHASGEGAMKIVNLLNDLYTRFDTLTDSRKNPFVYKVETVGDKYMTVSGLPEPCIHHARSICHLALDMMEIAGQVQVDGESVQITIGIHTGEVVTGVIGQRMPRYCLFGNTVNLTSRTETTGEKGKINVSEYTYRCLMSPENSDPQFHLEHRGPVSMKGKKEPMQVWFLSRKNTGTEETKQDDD
Procedure: The sGC cellular activator assay is performed in the presence and absence of 50% human serum (HS) using Chinese hamster ovary cells that have been stably transfected to express the human soluble guanylate cyclase alpha 1 and beta 1 subunits (sGC). Cells are preincubated with 40 microM 1H-[1,2,4]oxadiazolo[4,3-a]quinoxalin-1-one (ODQ), an sGC inhibitor, for one h in buffer containing 0.1% bovine serum albumin and 3-isobutyl-1-methylxanthine (IBMX). Concentration response curves are prepared for test compounds in DMSO. An intermediate dilution of the compounds is performed in either buffer containing IBMX or type AB HS containing IBMX. Diluted compounds are added to cells and they are incubated at room temperature for thirty min. cGMP is measured using a CisBio homogeneous time resolved fluorescence kit and the EC50 is calculated for each compound.
Representative compounds of the present invention were tested for activity the above assay. Preferred compounds have an EC50 of <1,000 nM in the above assay and more preferred compounds have an EC50<200 nM.

physchem = conditions: kinetic from dmso stock
[2] = Human liver microsome (HLM) metabolic stability assay; assay type: in vitro ADME; conditions: human liver microsomes
Procedure: The 5 time point, high-throughput human liver microsome (HLM) metabolic stability assay is designed to determine in vitro compound metabolism. Compounds are incubated with HLMs at a concentration of 1 uM, at 37° C., for a total of 60 min. The percent of compound remaining at 5, 15, 30, and 60 min is used to calculate the t1/2 (min), CLint (mL/min/kg), CLh (mL/min/kg), and % Qh. The assay is based on a 96-well format and can accommodate up to 92 compounds per plate (n=1).
Using the 96-well multi-channel head, the Biomek FX, equipped with a Peltier heating block/shaker, is programmed to accomplish the following steps: • 1. Pipette 175 uL of 1.15 mg/mL microsomes into each of the 96 conical inserts (Analytical Sales and Products, catalog number 96PL05) that fit into the plate of the Peltier heating block/shaker (the incubation plate) • 2. Add 5 uL of compounds from the assay plate to the microsomes and shake the mixture at 600 rpm at 42.1° C. for 10 min (a setting of 42.1° C. on the Peltier is required for the samples to incubate at 37° C.) • 3. After 10 min, prompt the user to add the NADPH plate to the deck and add 20 uL from the NADPH plate to the incubation plate to start the reaction • 4. Add 215 uL of 100%, cold acetonitrile containing an internal standard(s) to a 0 minute, 5 minute, 15 minute, 30 minute, and 60 minute “quench” plate • 5. At 0 min, 5 min, 15 min, 30 min, and 60 min into the incubation, aspirate 12 uL from the incubation mixture and add it to the quench solution to stop the reaction • 6. Add 185 uL HPLC grade water to each well of the 0, 5, 15, 30 and 60 minute quench plates to dilute compounds to the appropriate concentration for the mass spectrometer
After all time points are collected, the quench plates are sealed with 96-well pierceable plate mats or heat sealing foil and centrifuged at 3000 rpm for 15 min to pellet the microsomes.
The plates are analyzed using LC/MS/MS with electron spray ionization (ESI) and the previously determined MRM transitions. The LC method includes the following parameters:
Using an Excel template in Activitybase, the peak areas corresponding to 5, 15, 30 and 60 min are compared to the peak area at 0 min to calculate the percent of remaining compound using the following equation:
Percent compound remaining=(AUC at Time t min/AUC at Time 0 min)×100 where t=0, 5, 15, 30 or 60 min.
Time (min) is plotted against the natural logarithm (Ln) of the percent compound remaining to determine the slope. The slope is used to calculate t1/2 (min) using the equation, t1/2=0.693/slope.
Clh, Hepatic clearance • Hepatic flow*f(u)*Clint/(hepatic flow+f(u)*Clint)
Qh, % Hepatic blood flow • (Clh/Hepatic flow)*100
Preferred compounds have % Qh values of less than 24.

[3] = pH 2.2, aqueous buffer, Solubility (pH 2.2)
[4] = pH 4.5, aqueous buffer, Solubility (pH 4.5)
[5] = pH 6.8, aqueous buffer, Solubility (pH 6.8)

Compound | EC50 [1] | solubility at 24 h (physchem; [3]) | solubility at 24 h (physchem; [4]) | solubility at 24 h (physchem; [5]) | Metabolic stability (Qh %), % hepatic blood flow [2]
Cc1ccc(OCc2cc(C)c3c(c2)CCN(C2COC2)C3)c(-c2cccc(N3C[C@@H]4C[C@]4(C(=O)O)C3)n2)c1 [Compound 38] | 354 nM | 100 µg/mL (≈ 190 µM) | 85 µg/mL (≈ 162 µM) | 59 µg/mL (≈ 112 µM) | <24%
Cc1ccc(OCc2cc(C)c3c(c2C)CCN(C2CCOCC2)C3)c(-c2cccc(N3C[C@@H]4C[C@]4(C(=O)O)C3)n2)c1 [Compound 39] | 50 nM | 100 µg/mL (≈ 176 µM) | 91 µg/mL (≈ 160 µM) | 45 µg/mL (≈ 79.3 µM) | <24%
Cc1ccc(OCc2cc(C)c3c(c2C)CCN(C2COC2)C3)c(-c2cccc(N3C[C@@H]4C[C@]4(C(=O)O)C3)n2)c1 [Compound 40] | 38 nM | 98 µg/mL (≈ 182 µM) | 79 µg/mL (≈ 146 µM) | 52 µg/mL (≈ 96.4 µM) | <24%
Cc1ccc(OCc2ccc3c(c2C)CCN(C2CCOCC2)CC3)c(-c2cccc(N3C[C@@H]4C[C@]4(C(=O)O)C3)n2)c1 [Compound 41] | 16 nM | 100 µg/mL (≈ 176 µM) | 84 µg/mL (≈ 148 µM) | 45 µg/mL (≈ 79.3 µM) | <24%
Cc1ccc(OCc2ccc3c(c2C)CCN(C2COC2)CC3)c(-c2cccc(N3C[C@@H]4C[C@]4(C(=O)O)C3)n2)c1 [Compound 42] | 50 nM | 96 µg/mL (≈ 178 µM) | 87 µg/mL (≈ 161 µM) | 58 µg/mL (≈ 107 µM) | 76%
COC[C@H]1N(c2cccc(-c3cccc(C)c3OCc3ccc4c(c3)CCN(C3COC3)C4)n2)C[C@@H]2C[C@@]21C(=O)O [Compound 43] | 63 nM | 140 µg/mL (≈ 252 µM) | 120 µg/mL (≈ 216 µM) | 97 µg/mL (≈ 175 µM) | <24%
COC[C@H]1N(c2cccc(-c3cccc(C)c3OCc3ccc4c(c3)CCN(C3CCOCC3)C4)n2)C[C@@H]2C[C@@]21C(=O)O [Compound 44] | 58 nM | 130 µg/mL (≈ 223 µM) | 110 µg/mL (≈ 188 µM) | 86 µg/mL (≈ 147 µM) | <24%
COC[C@H]1N(c2cccc(-c3cccc(C)c3OCc3ccc4c(c3C)CCN(C3CCOCC3)C4)n2)C[C@@H]2C[C@@]21C(=O)O [Compound 46] | 18 nM | 110 µg/mL (≈ 184 µM) | 96 µg/mL (≈ 161 µM) | 77 µg/mL (≈ 129 µM) | <24%
COC[C@H]1N(c2cccc(-c3cccc(C)c3OCc3ccc4c(c3C)CCN(C3COC3)C4)n2)C[C@@H]2C[C@@]21C(=O)O [Compound 47] | 17 nM | 110 µg/mL (≈ 193 µM) | 95 µg/mL (≈ 167 µM) | 84 µg/mL (≈ 147 µM) | <24%
COC[C@H]1N(c2cccc(-c3cccc(C)c3OCc3cc(C)c4c(c3)CCN(C3CCOCC3)C4)n2)C[C@@H]2C[C@@]21C(=O)O [Compound 48] | 18 nM | 110 µg/mL (≈ 184 µM) | 69 µg/mL (≈ 115 µM) | 83 µg/mL (≈ 139 µM) | <24%
COC[C@H]1N(c2cccc(-c3cccc(C)c3OCc3cc(C)c4c(c3)CCN(C3COC3)C4)n2)C[C@@H]2C[C@@]21C(=O)O [Compound 49] | 12 nM | 120 µg/mL (≈ 211 µM) | 95 µg/mL (≈ 167 µM) | 82 µg/mL (≈ 144 µM) | <24%
COC[C@H]1N(c2cccc(-c3cccc(C)c3OCc3cc(C)c4c(c3)CCN(C3CCOC3)C4)n2)C[C@@H]2C[C@@]21C(=O)O (stereo partly shown) [Compound 50] | 8 nM | 120 µg/mL (≈ 206 µM) | 96 µg/mL (≈ 164 µM) | 77 µg/mL (≈ 132 µM) | 26%
CCc1cc(COc2c(C)cccc2-c2cccc(N3C[C@@H]4C[C@]4(C(=O)O)[C@H]3COC)n2)cc2c1CN(C1CCOCC1)CC2 [Compound 53] | 9 nM | 130 µg/mL (≈ 212 µM) | 110 µg/mL (≈ 180 µM) | 80 µg/mL (≈ 131 µM) | <24%
CCc1cc(COc2c(C)cccc2-c2cccc(N3C[C@@H]4C[C@]4(C(=O)O)[C@H]3COC)n2)cc2c1CN(C1COC1)CC2 [Compound 54] | 16 nM | 130 µg/mL (≈ 223 µM) | 90 µg/mL (≈ 154 µM) | 81 µg/mL (≈ 139 µM) | 39%
CCc1cc(COc2c(C)cccc2-c2cccc(N3C[C@@H]4C[C@]4(C(=O)O)[C@H]3COC)n2)cc2c1CN(C1CCOC1)CC2 (stereo partly shown) [Compound 55] | 10 nM | 150 µg/mL (≈ 251 µM) | 110 µg/mL (≈ 184 µM) | 82 µg/mL (≈ 137 µM) | <24%
CCc1cc(COc2c(C)cccc2-c2cccc(N3C[C@@H]4C[C@]4(C(=O)O)[C@H]3COC)n2)cc2c1CN(CC1COCCO1)CC2 (stereo partly shown) [Compound 56] | 26 nM | 140 µg/mL (≈ 223 µM) | 120 µg/mL (≈ 191 µM) | 88 µg/mL (≈ 140 µM) | <24%
COC[C@H]1N(c2cccc(-c3cccc(C)c3OCc3cc4c(c(OC)c3)CN(C3CCOCC3)CC4)n2)C[C@@H]2C[C@@]21C(=O)O [Compound 57] | 21 nM | 120 µg/mL (≈ 196 µM) | 99 µg/mL (≈ 161 µM) | 78 µg/mL (≈ 127 µM) | <24%
COC[C@H]1N(c2cccc(-c3cccc(C)c3OCc3cc4c(c(OC)c3)CN(C3COC3)CC4)n2)C[C@@H]2C[C@@]21C(=O)O [Compound 58] | 30 nM | 110 µg/mL (≈ 188 µM) | 90 µg/mL (≈ 154 µM) | 80 µg/mL (≈ 137 µM) | <24%
COC[C@H]1N(c2cccc(-c3cccc(C)c3OCc3cc(C)c4c(c3F)CCN(C3CCOCC3)C4)n2)C[C@@H]2C[C@@]21C(=O)O [Compound 59] | 8 nM | 120 µg/mL (≈ 195 µM) | 99 µg/mL (≈ 161 µM) | 74 µg/mL (≈ 120 µM) | <24%
COC[C@H]1N(c2cccc(-c3cccc(C)c3OCc3ccc4c(c3C)CCN(C3COC3)CC4)n2)C[C@@H]2C[C@@]21C(=O)O [Compound 60] | 6 nM | 120 µg/mL (≈ 206 µM) | 100 µg/mL (≈ 171 µM) | 79 µg/mL (≈ 135 µM) | <24%
COC[C@H]1N(c2cccc(-c3cccc(C)c3OCc3ccc4c(c3C)CCN(C3CCOCC3)CC4)n2)C[C@@H]2C[C@@]21C(=O)O [Compound 61] | 8 nM | 110 µg/mL (≈ 180 µM) | 96 µg/mL (≈ 157 µM) | 74 µg/mL (≈ 121 µM) | <24%
COC[C@@H]1N(c2cccc(-c3cccc(C)c3OCc3cc(C)c4c(c3)CCN(C3CCOCC3)C4)n2)C[C@@H]2C[C@@]21C(=O)O [Compound 62] | 465 nM | 130 µg/mL (≈ 217 µM) | 130 µg/mL (≈ 217 µM) | 130 µg/mL (≈ 217 µM) | <24%
COC[C@@H]1N(c2cccc(-c3cccc(C)c3OCc3cc(C)c4c(c3)CCN(C3CCOCC3)C4)n2)C[C@H]2C[C@]21C(=O)O [Compound 63] | 96 nM | 130 µg/mL (≈ 217 µM) | 130 µg/mL (≈ 217 µM) | 130 µg/mL (≈ 217 µM) | <24%
